Source: US20070167412A1, “HALOCOMBSTATINS AND METHODS OF SYNTHESIS THEREOF” (ARIZONA BOARD OF REGENTS, priority 2003, published 2007)
In brackets after ≈: the same amount, converted by molar mass. Read-outs that look alike come from different tables or passages of the source.

Tests used:
Breast MCF-7 = test: human cancer cell growth inhibition, sulforhodamine B assay; assay type: cell-based; conditions: Homo sapiens, MCF7; Table I; 48 hours; read-out: Human cancer cell line inhibition (GI50) Breast adn MCF-7
Method: (§1) Inhibition of human cancer cell growth was assessed using the National Cancer Institute's standard sulforhodamine B assay. After 48 hours, the plates were fixed with trichloracetic acid, stained with sulforhodamine B and read with an automated microplate reader. […] Inhibition of the mouse leukemia P388 cells was assessed in a 10% horse serum/Fisher medium soution for 24 hours, followed by a 48 hour incubation with serial dilutions of the compounds. Cell growth inhibition (ED50) was then calculated using a Z1 Becleman/Coulter particle counter.

CNS SF268 = test: as above; assay type: cell-based; conditions: Table I, 48 hours
Method: as §1

Colon KM20L2 = test: as above; assay type: cell-based; conditions: Table I, 48 hours
Method: as §1

Lung-NSC NCI-H460 = test: as above; assay type: cell-based; conditions: Table I, 48 hours
Method: as §1

Pancreas BXPC-3 = test: as above; assay type: cell-based; conditions: Table I, 48 hours
Method: as §1

Prostate DU-145 = test: as above; assay type: cell-based; conditions: Table I, 48 hours
Method: as §1

purified tubulin = system: T1, purified tubulin; test: inhibition of tubulin polymerization (turbidimetry); assay type: biochemical
T1 construct: other: 10 μM tubulin, GTP 0.4 mM, 30° C., extent after 20 minutes
Method: (§2) Tubulin polymerization was evaluated by turbidimetry at 350 nm using Beckman DU7400/7500 spectrophotometers as described in detail elsewhere. […] Varying concentrations of drug were preincubated with 10 μM:M ([…]) purified tubulin (See Hamel, E., et al., Separation of Active Tubulin and Microtubule-associated Proteins by Ultracentrifiigation and Isolation of a Component Causing the Formation of Microtubule Bundles, Biochemistry 1984, 23, 4173-4184). Samples were chilled on ice, GTP (0.4 mM) was added, and polymerization was followed at 30° C. The parameter measured was extent of the reaction after 20 minutes. Coichicine binding was measured as described in detail previously. Reaction mixtures contained 1.0 μM :M tubulin, 5.0:M, [^3H]colchicine (from Dupont), and inhibitor at 1.0 μM:M. Incubation was for 10 minutes at 37° C.
Tubulin Evaluations: Tubulin polymerization was evaluated by turbidimetry at […] using Beckman DU7400/7500 spectrophotometers as known to one of skill in the art. Varying concentrations of the compound were preincubated with 10 μM. […]

tubulin = test: inhibition of [3H]colchicine binding to tubulin; conditions: 1.0 μM tubulin, 5.0 μM [3H]colchicine, inhibitor at 1.0 μM, 10 minutes at 37° C.
Method: as §2

Candida albicans = test: reference broth microdilution susceptibility assay; assay type: cell-based; conditions: Table III
Source text: (§3) The halocombstatins of the present invention appear to also have antimicrobial properties. More specifically, they appear to have antifungal and/or antibacterial properties. Antimicrobial evaluation of the halocombstatins involved susceptibility testing performed by the reference broth microdilution assay. The antimicrobial activities of the halocombstatins were very similar, targeting Gram-positive bacteria and the pathogenic fungi Cryptococcus neoformans, and results are shown in Table III.
(§4) (See Pettit, G. R., et al., Antineoplastic Agents 463. Synthesis of Combretastatin A-3 Diphosphates, Anticancer Drug Design 2000, 15, 397-404.) To determine the antimicrobial activity of the present compounds, susceptibility testing was performed by the reference broth microdilution assay. (See National Committee for Clinical Laboratory Standards. Methods for Dilution Antimicrobial Susceptibility Tests for Bacteria that Grow Aerobically. Approved Standard M7-A5. Wayne, P A: NCCLS, 2000. National Committee for Clinical Laboratory Standards. Reference Method for Broth Dilution Antifungal Susceptibility Testing of Yeasts. Aproved Standard M27-A. Wayne, P A: NCCLS, 1997.) The antimicrobial activities of the halocombretastatins of the present invention were very similar, targeting Gram-positive bacteria and Cryptococcus neoformans. This is illustrated in further detail in Table III. Thus, several of the novel compounds of the present invention appear to have potential as antimicrobial agents, such as antifingals and antibacterials.

Cryptococcus neoformans = test: reference broth microdilution susceptibility assay; assay type: cell-based; conditions: Table III
Source text: as §3, §4

Enterobacter cloacae = test: reference broth microdilution susceptibility assay; assay type: cell-based; conditions: Table III
Source text: as §3, §4

Enterococcus faecalis = test: reference broth microdilution susceptibility assay; assay type: cell-based; conditions: Table III
Source text: as §3, §4

Escherichia coli = test: reference broth microdilution susceptibility assay; assay type: cell-based; conditions: Table III
Source text: as §3, §4

Micrococcus luteus = test: reference broth microdilution susceptibility assay; assay type: cell-based; conditions: Table III
Source text: as §3, §4

Neisseria gonorrhoeae = test: reference broth microdilution susceptibility assay; assay type: cell-based; conditions: Table III
Source text: as §3, §4

Staphylococcus aureus = test: reference broth microdilution susceptibility assay; assay type: cell-based; conditions: Table III
Source text: as §3, §4

[1] = system: Stenotrophomonas maltophilia; test: reference broth microdilution susceptibility assay; assay type: cell-based; conditions: Table III
Source text: as §3, §4

Streptococcus pneumoniae = test: reference broth microdilution susceptibility assay; assay type: cell-based; conditions: Table III
Source text: as §3, §4

KAT-4 = test: human anaplastic thyroid carcinoma cell line inhibition; assay type: cell-based
Method: (§5) Inhibition of human cancer cell growth was assessed using the National Cancer Institute's standard sulforhodamine B assay. After 48 hours, the plates were fixed with trichloracetic acid, stained with sulforhodamine B and read with an automated microplate reader. A growth inhibition of 50% (GI50 or the drug concentration causing a 50% reduction in the net protein increase) was calculated from optical density data with Inmunosoft software. Inhibition of the mouse leukemia P388 cells was assessed in a 10% horse serum/Fisher medium soution for 24 hours, followed by a 48 hour incubation with serial dilutions of the compounds. Cell growth inhibition (ED50) was then calculated using a Z1 Becleman/Coulter particle counter.

SW1736 = test: as above; assay type: cell-based
Method: as §5

[2] = system: human umbilical vein endothelial cells (HUVEC); test: HUVEC growth inhibition, sulforhodamine B assay; assay type: cell-based
Method: (§6) In vitro Matrigel antiangiogenesis assays were implemented according to the Developmental Therapeutics Program NCI/NIH protocols known to one of skill in the art. Matrigel, a basement membrane matrix, was obtained from BD Biosciences. Growth inhibition and cord formation assays were Conducted using human umbilical vein endothelial cells obtained from GlycoTeCh. HUVEC cells were grown in EGM-2 medium.
The standard sulforhodamine B assay (see Cancer Cell Line Procedures above) was used to evaluate results using HUVEC cells. IC50 or ED50 (drug concentration causing 50% inhibition) was calculated from the plotted data.

[3] = system: human umbilical vein endothelial cells (HUVEC); test: Matrigel cord formation assay; assay type: cell-based; parameters: key to Lengths of Cords: −: No Cords; +: Small; ++: ˜50% of Control; +++: Same as Control; conditions: 24 hours, compared to untreated controls
Method: as §6
(§7) An aliquot of sixty microliters was placed in each well of an ice-cold 96-well plate. The plates were then left for 15 minutes at room temperature, then incubated for 30 minutes at 37° C. to permit the matrigel to polymerize. Meanwhile, HUVEC cells were harvested and diluted to a concentration of 2×10^5 cells/ml. A solution of 100 μL containing the compounds to be tested was added next. After 24 hours incubation, pictures were taken for each concentration using an inverted Nikon Diaphot microscope and D100 digital camera. Drug effect was assessed, compared to untreated controls, by measuring the length of cords formed and number ofjunctions.

[4] = system: human umbilical vein endothelial cells (HUVEC); test: Matrigel cord formation assay; assay type: cell-based; parameters: key: −: No Cords; +: Small; ++: ˜50% of Control; +++: Same as Control; conditions: 24 hours, compared to untreated controls
Method: as §6, §7

[5] = system: human umbilical vein endothelial cells (HUVEC); test: Matrigel cord formation assay; assay type: cell-based; parameters: key: −: No Junctions; +: Few; ++: ˜50% of Control; +++: Same as Control; conditions: 24 hours, compared to untreated controls
Method: as §6, §7

COc1ccc(/C=C\c2cc(Br)c(OC)c(OC)c2)cc1O [Compound 13a, 3-Bromo-4,4′,5-trimethoxy-3′-hydroxy-Z-stilbene]
GI50 (Breast MCF-7): < 0.001 µg/mL
GI50 (CNS SF268; Homo sapiens, SF-268, read-out: Human cancer cell line inhibition (GI50) CNS SF268): < 0.001 µg/mL
GI50 (Colon KM20L2; Homo sapiens, KM-20L2, read-out: Human cancer cell line inhibition (GI50) Colon KM20L2): 0.086 µg/mL (≈ 0.235 µM)
GI50 (Lung-NSC NCI-H460; Homo sapiens, NCI-H460, read-out: Human cancer cell line inhibition (GI50) Lung-NSC NCI-H460): < 0.001 µg/mL
GI50 (Pancreas BXPC-3; Homo sapiens, BXPC-3, read-out: Human cancer cell line inhibition (GI50) Pancreas-a BXPC-3): 0.16 µg/mL (≈ 0.438 µM)
GI50 (Prostate DU-145; Homo sapiens, DU-145, read-out: Human cancer cell line inhibition (GI50) Prostate DU-145): < 0.001 µg/mL
IC50 (purified tubulin; 10 μM tubulin, GTP 0.4 mM, 30° C., extent after 20 minutes, read-out: Inhibition of polymerization IC50 ± S.D.): 1500 ± 200 nM
Inhibition of colchicine binding % inhibition ± S.D. (tubulin): 89 ± 2%
Range of minimum inhibitory concentration, Candida albicans (Candida albicans): * (no inhibition at 64 μg/ml)
Range of minimum inhibitory concentration, Cryptococcus neoformans (Cryptococcus neoformans): * (no inhibition at 64 μg/ml)
Range of minimum inhibitory concentration, Enterobacter cloacae (Enterobacter cloacae): * (no inhibition at 64 μg/ml)
Range of minimum inhibitory concentration, Enterococcus faecalis (Enterococcus faecalis): * (no inhibition at 64 μg/ml)
Range of minimum inhibitory concentration, Escherichia coli (Escherichia coli): * (no inhibition at 64 μg/ml)
Range of minimum inhibitory concentration, Micrococcus luteus (Micrococcus luteus): 32 to 64 µg/mL
Range of minimum inhibitory concentration, Neisseria gonorrhoeae (Neisseria gonorrhoeae): 32 to 64 µg/mL
Range of minimum inhibitory concentration, Staphylococcus aureus (Staphylococcus aureus): * (no inhibition at 64 μg/ml)
Range of minimum inhibitory concentration, Stenotrophomonas maltophilia [1]: * (no inhibition at 64 μg/ml)
Range of minimum inhibitory concentration, Streptococcus pneumoniae (Streptococcus pneumoniae): * (no inhibition at 64 μg/ml)
melting point: 108 to 109 °C

COc1ccc(/C=C\c2cc(I)c(OC)c(I)c2)cc1O [Compound 22a, 3,5-diiodo-4,4′-dimethoxy-3′-hydroxy-z-stilbene]
GI50 (KAT-4; Homo sapiens, KAT-4): 0.039 to 0.063 µg/mL (≈ 0.0768 to 0.124 µM)
GI50 (SW1736; Homo sapiens, SW-1736): 1.2 µg/mL (≈ 2.36 µM)
Relative % Growth ([2]; HUVEC, 0.00001 μg/ml): 87%
Relative % Growth ([2]; HUVEC, 0.0001 μg/ml): 84%
Relative % Growth ([2]; HUVEC, 0.001 μg/ml): 8%
Relative % Growth ([2]; HUVEC, 0.01 μg/ml): 4%
GI50 ([2]; Homo sapiens, HUVEC, Table V, read-out: Human Umbilical Vein Endothelial Cell (HUVEC) Inhibition Values (GI50)): 0.00028 µg/mL (≈ 0.000551 µM)
Lengths of Cords ([3]; 0.0001 μg/ml): +++
Lengths of Cords ([3]; 0.001 μg/ml): +
Lengths of Cords ([3]; 0.01 μg/ml): −
Number of junctions ([4]; 0.0001 μg/ml): +++
Number of junctions ([5]; 0.01 μg/ml): −

Potassium 3,5-dilodo-4,4′dimethoxy-z-stilbene 3′-O-phosphate [Compound S (Table Ia)]
Human Anaplastic Thyroid Carcinoma Cell Line Inhibition Values (GI50) KAT-4 (KAT-4): 0.38 to 0.44 µg/mL
Human Anaplastic Thyroid Carcinoma Cell Line Inhibition Values (GI50) SW1736 (SW1736): >10 µg/mL
Relative % Growth ([2]; HUVEC, 0.0001 μg/ml): 96%
Relative % Growth ([2]; HUVEC, 0.001 μg/ml): 88%
Relative % Growth ([2]; HUVEC, 0.01 μg/ml): 33%
Relative % Growth ([2]; HUVEC, 0.1 μg/ml): 15%
Human Umbilical Vein Endothelial Cell (HUVEC) Inhibition Values (GI50) ([2]; Table V): 0.0049 µg/mL
Lengths of Cords ([3]; 0.001 μg/ml): +++
Lengths of Cords ([3]; 0.1 μg/ml): −
Number of junctions ([4]; 0.001 μg/ml): +++
Number of junctions ([5]; 0.1 μg/ml): −

Potassium 3-iodo-4,4′,5-trimethoxy-z-stilbene 3′-O-phosphate [Compound 20c]
Human Anaplastic Thyroid Carcinoma Cell Line Inhibition Values (GI50) KAT-4 (KAT-4): 0.37 to 0.43 µg/mL
Human Anaplastic Thyroid Carcinoma Cell Line Inhibition Values (GI50) SW1736 (SW1736): >10 µg/mL
Relative % Growth ([2]; HUVEC, 0.00001 μg/ml): 95%
Relative % Growth ([2]; HUVEC, 0.0001 μg/ml): 77%
Relative % Growth ([2]; HUVEC, 0.001 μg/ml): 10%
Relative % Growth ([2]; HUVEC, 0.01 μg/ml): 1%
Human Umbilical Vein Endothelial Cell (HUVEC) Inhibition Values (GI50) ([2]; Table V): 0.00025 µg/mL
Lengths of Cords ([3]; 0.00001 μg/ml): +++
Lengths of Cords ([3]; 0.0001 μg/ml): +++
Lengths of Cords ([3]; 0.001 μg/ml): ++
Number of junctions ([4]; 0.00001 μg/ml): +++
Number of junctions ([4]; 0.0001 μg/ml): +++

combretastatin A-4 [Compound 1a, reference compound]
Human cancer cell line inhibition (GI50) CNS SF268 (CNS SF268): <0.001 µg/mL
Human cancer cell line inhibition (GI50) Colon KM20L2 (Colon KM20L2): 0.061 µg/mL
Human cancer cell line inhibition (GI50) Lung-NSC NCI-H460 (Lung-NSC NCI-H460): 0.0006 µg/mL
Human cancer cell line inhibition (GI50) Pancreas-a BXPC-3 (Pancreas BXPC-3): 0.39 µg/mL
Human cancer cell line inhibition (GI50) Prostate DU-145 (Prostate DU-145): 0.0008 µg/mL
IC50 (purified tubulin; text b32, read-out: IC50, inhibition of the polymerization reaction): 1800 nM
Inhibition of colchicine binding % inhibition ± S.D. (tubulin): 81 ± 3%
